In ChEMBL document CHEMBL1201862, “PubChem BioAssay data set” (2004):
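Test compounds were applied to cells in 96-well plates for 48 hours at 5 doses. GI50 is the concentration that inhibits growth by half.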 The source made the active and inactive calls. Cut-off read from the data, not from the text of the source: active = GI50 up to about 1.1 µM and inactive = higher.

What was measured:
Assay in all cases: NCI-60 cell line screen, 48 h
COLO 205 = system: COLO 205
LOX IMVI = system: LOX IMVI
SK-MEL-2 = system: SK-MEL-2
SF-295 = system: SF-295
SW-620 = system: SW-620
SK-OV-3 = system: SK-OV-3
HCC 2998 = system: HCC 2998
786-0 = system: 786-0
UACC-257 = system: UACC-257
A549 = system: A549
SNB-19 = system: SNB-19
CCRF-CEM = system: CCRF-CEM
OVCAR-5 = system: OVCAR-5
TK-10 = system: TK-10
SF-539 = system: SF-539
MOLT-4 = system: MOLT-4
MDA-MB-231 = system: MDA-MB-231
Malme-3M = system: Malme-3M
EKVX = system: EKVX
PC-3 = system: PC-3
HOP-92 = system: HOP-92
SN12C = system: SN12C
MDA-MB-435 = system: MDA-MB-435
RXF 393 = system: RXF 393
U-251 = system: U-251
NCI-H522 = system: NCI-H522
SK-MEL-5 = system: SK-MEL-5
SR = system: SR
IGROV-1 = system: IGROV-1
KM12 = system: KM12
HCT-15 = system: HCT-15
A498 = system: A498
MDA-N = system: MDA-N
UACC-62 = system: UACC-62
MCF7 = system: MCF7
HCT-116 = system: HCT-116
OVCAR-3 = system: OVCAR-3
HT-29 = system: HT-29
NCI/ADR-RES = system: NCI/ADR-RES
NCI-H226 = system: NCI-H226
SF-268 = system: SF-268
CAKI-1 = system: CAKI-1
UO-31 = system: UO-31
DU-145 = system: DU-145
OVCAR-8 = system: OVCAR-8
RPMI-8226 = system: RPMI-8226
M14 = system: M14
K562 = system: K562
HOP-62 = system: HOP-62
SK-MEL-28 = system: SK-MEL-28
NCI-H23 = system: NCI-H23
OVCAR-4 = system: OVCAR-4
ACHN = system: ACHN
T47D = system: T47D
BT-549 = system: BT-549
HL-60 = system: HL-60
NCI-H460 = system: NCI-H460
SNB-75 = system: SNB-75

## COc1cc2c(cc1OCCCC(=O)Nc1cc(C(=O)Nc3cc(C(=O)NCCCN(C)C)n(C)n3)n(C)n1)N=CC1CCCN1C2=O (stereo unspecified)
COLO 205
  GI50: 13.5 µM (inactive)
LOX IMVI
  GI50: 20.7 µM (inactive)
SK-MEL-2
  GI50: 16.4 µM (inactive)
SF-295
  GI50: 36.1 µM (inactive)
SW-620
  GI50: 15.2 µM (inactive)
SK-OV-3
  GI50: 57.3 µM (inactive)
HCC 2998
  GI50: 17.3 µM (inactive)
786-0
  GI50: 16.3 µM (inactive)
UACC-257
  GI50: 17.8 µM (inactive)
A549
  GI50: 36.1 µM (inactive)
SNB-19
  GI50: 12.6 µM (inactive)
CCRF-CEM
  GI50: 12.5 µM (inactive)
OVCAR-5
  GI50: 19.4 µM (inactive)
TK-10
  GI50: 19.7 µM (inactive)
SF-539
  GI50: 21.7 µM (inactive)
MOLT-4
  GI50: 4.79 µM (inactive)
MDA-MB-231
  GI50: 20 µM (inactive)
Malme-3M
  GI50: 17.2 µM (inactive)
EKVX
  GI50: 34 µM (inactive)
PC-3
  GI50: 31.8 µM (inactive)
HOP-92
  GI50: 19.1 µM (inactive)
SN12C
  GI50: 16.1 µM (inactive)
MDA-MB-435
  GI50: 16.8 µM (inactive)
RXF 393
  GI50: 16.7 µM (inactive)
U-251
  GI50: 17 µM (inactive)
NCI-H522
  GI50: 7 µM (inactive)
SK-MEL-5
  GI50: 15 µM (inactive)
SR
  GI50: 12.9 µM (inactive)
IGROV-1
  GI50: 12.8 µM (inactive)
KM12
  GI50: 34.9 µM (inactive)
HCT-15
  GI50: 16.1 µM
A498
  GI50: 0.411 µM (active)
MDA-N
  GI50: 16.6 µM (inactive)
UACC-62
  GI50: 20.1 µM (inactive)
MCF7
  GI50: 12.6 µM (inactive)
HCT-116
  GI50: 16 µM (inactive)
OVCAR-3
  GI50: 18.5 µM (inactive)
HT-29
  GI50: 17 µM (inactive)
NCI/ADR-RES
  GI50: 20 µM (inactive)
NCI-H226
  GI50: 44.4 µM (inactive)
SF-268
  GI50: 18.3 µM (inactive)
CAKI-1
  GI50: 16.8 µM (inactive)
UO-31
  GI50: 16.7 µM (inactive)
DU-145
  GI50: 16.4 µM (inactive)
OVCAR-8
  GI50: 22 µM (inactive)
RPMI-8226
  GI50: 18.5 µM (inactive)
M14
  GI50: 16 µM (inactive)
K562
  GI50: 14.6 µM (inactive)
HOP-62
  GI50: 20.1 µM (inactive)
SK-MEL-28
  GI50: 16.7 µM (inactive)
NCI-H23
  GI50: 17.2 µM (inactive)
OVCAR-4
  GI50: 13.3 µM (inactive)
ACHN
  GI50: 16.2 µM (inactive)
T47D
  GI50: 14.2 µM (inactive)
BT-549
  GI50: 12.1 µM (inactive)
HL-60
  GI50: 15.2 µM (inactive)
NCI-H460
  GI50: 14.4 µM (inactive)

## C=CCOc1ccc(C2C(C(=O)OC)C(=O)CC(O)(c3ccccc3)C2C(=O)OC)cc1OC (stereo unspecified)
COLO 205
  GI50: 63.1 µM (inactive)
LOX IMVI
  GI50: 40.1 µM (inactive)
SK-MEL-2
  GI50: 26.4 µM (inactive)
SF-295
  GI50: 26.9 µM (inactive)
SW-620
  GI50: > 100 µM (inactive)
HCC 2998
  GI50: 40.5 µM (inactive)
786-0
  GI50: 17 µM (inactive)
UACC-257
  GI50: 58.1 µM (inactive)
A549
  GI50: 34.4 µM (inactive)
SNB-19
  GI50: > 100 µM (inactive)
CCRF-CEM
  GI50: 30.9 µM (inactive)
OVCAR-5
  GI50: > 100 µM (inactive)
TK-10
  GI50: 33.7 µM (inactive)
MOLT-4
  GI50: 27.5 µM (inactive)
MDA-MB-231
  GI50: 18.4 µM (inactive)
Malme-3M
  GI50: 31.6 µM (inactive)
EKVX
  GI50: 62.7 µM (inactive)
PC-3
  GI50: 31.7 µM (inactive)
HOP-92
  GI50: 18 µM (inactive)
SN12C
  GI50: 41.7 µM (inactive)
MDA-MB-435
  GI50: 41.1 µM (inactive)
RXF 393
  GI50: 15.9 µM (inactive)
U-251
  GI50: 32 µM (inactive)
NCI-H522
  GI50: 22.4 µM (inactive)
SK-MEL-5
  GI50: 35.3 µM (inactive)
SR
  GI50: 27.4 µM (inactive)
IGROV-1
  GI50: 34.7 µM (inactive)
KM12
  GI50: 23.5 µM (inactive)
HCT-15
  GI50: > 100 µM
A498
  GI50: 22.8 µM (inactive)
MDA-N
  GI50: 58.9 µM (inactive)
UACC-62
  GI50: 27.4 µM (inactive)
MCF7
  GI50: 21.2 µM (inactive)
HCT-116
  GI50: 20 µM (inactive)
OVCAR-3
  GI50: 45.6 µM (inactive)
HT-29
  GI50: 42.2 µM (inactive)
NCI/ADR-RES
  GI50: 22.8 µM (inactive)
NCI-H226
  GI50: 22.4 µM (inactive)
SF-268
  GI50: 20.5 µM (inactive)
CAKI-1
  GI50: 32.3 µM (inactive)
UO-31
  GI50: 22.4 µM (inactive)
DU-145
  GI50: 51.6 µM (inactive)
OVCAR-8
  GI50: 19.7 µM (inactive)
SNB-75
  GI50: 26.9 µM (inactive)
K562
  GI50: 51.2 µM (inactive)
HOP-62
  GI50: 42.4 µM (inactive)
SK-MEL-28
  GI50: 41 µM (inactive)
NCI-H23
  GI50: 31.8 µM (inactive)
OVCAR-4
  GI50: 23.6 µM (inactive)
ACHN
  GI50: 38.1 µM (inactive)
T47D
  GI50: 20.8 µM (inactive)
BT-549
  GI50: 30.6 µM (inactive)
HL-60
  GI50: 31.6 µM (inactive)
NCI-H460
  GI50: 30.3 µM (inactive)
